Inhibition data for 18 compounds are collected here from patent publication US6635639B2, “Use of N-alkylamino-heterocylic compounds for the treatment of migraine” (NPS Allelix Corp., priority 1998, dated 2003).

In one experiment the target is T1, 5-HT1D receptor (Homo sapiens, UniProt P28221).
T1 construct: expressed in transfected cells
As to the kind of experiment: Binding affinity, 3H-serotonin displacement from membranes of cells expressing 5-HT1D. The settings on record: binding of radioligand inhibited in the presence of 100 nM of test compound; 3H-serotonin 1 nM; read-out: percent inhibition at the 5-HT1D receptor. On the procedure:
(§1) Selected compounds of the previous examples, as well as reference compounds, were evaluated for binding affinity using cell types receptive specifically to 5-HT1D and 5-HT1B ligands. The assay protocol generally entailed the incubation of membranes prepared from cells expressing the 5-HT1D or 5-HT1B subtype of 5-HT receptors with ^3H-serotonin (1 nM for 5-HT1D and 2.5 nM for 5-HT1B). Specific concentrations of the test compound were incubated with the radioligand and the membrane homogenates prepared from the recombinant cells. After a 60 minute incubation at 22° C., the incubation was terminated by vacuum filtration. The filters were washed with buffer and counted for radioactivity using liquid scintillation spectroscopy. The affinity of the test compound for the 5-HT1D receptor is expressed as the amount (in percent) of binding of the radioligand that is inhibited in the presence of 100 nM of test compound. A greater percent inhibition indicates greater affinity for the 5-HT1D receptor.

For the next experiment, the target named is T2, 5-HT1B receptor (Homo sapiens, UniProt P28222).
T2 construct: expressed in transfected cells
T2 sequence (P28222 whole entry): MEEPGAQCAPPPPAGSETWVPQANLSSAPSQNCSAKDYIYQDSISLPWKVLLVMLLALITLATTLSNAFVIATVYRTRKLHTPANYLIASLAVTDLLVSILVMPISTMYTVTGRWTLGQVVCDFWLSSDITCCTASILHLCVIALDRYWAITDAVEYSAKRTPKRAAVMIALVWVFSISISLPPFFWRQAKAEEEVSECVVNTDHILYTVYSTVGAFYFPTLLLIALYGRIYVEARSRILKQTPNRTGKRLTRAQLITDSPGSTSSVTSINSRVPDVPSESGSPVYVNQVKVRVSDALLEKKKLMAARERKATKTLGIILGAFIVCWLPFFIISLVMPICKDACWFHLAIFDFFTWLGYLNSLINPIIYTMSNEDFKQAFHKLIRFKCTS
Briefly: Binding affinity, 3H-serotonin displacement from membranes of cells expressing 5-HT1B. The following applies: 1 h; 3H-serotonin 2.5 nM; selectivity comparison; read-out: percent inhibition at the 5-HT1B receptor. On the procedure:
as §1

T1 sequence (P28221 whole entry): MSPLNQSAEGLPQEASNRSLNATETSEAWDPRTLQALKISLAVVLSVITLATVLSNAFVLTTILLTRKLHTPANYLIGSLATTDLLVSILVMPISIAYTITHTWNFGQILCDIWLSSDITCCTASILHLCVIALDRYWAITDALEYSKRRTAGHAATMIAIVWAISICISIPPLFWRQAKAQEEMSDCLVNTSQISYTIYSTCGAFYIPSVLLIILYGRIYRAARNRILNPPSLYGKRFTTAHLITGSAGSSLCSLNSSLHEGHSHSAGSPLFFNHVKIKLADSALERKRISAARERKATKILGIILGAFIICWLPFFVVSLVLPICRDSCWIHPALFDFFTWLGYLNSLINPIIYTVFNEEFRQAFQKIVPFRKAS

As usually defined, the inhibition is the percentage by which the read-out fell short of the control. As for `CCN(CC)CCn1ccc2ccc(C3CCSCC3)cc21` [Example 5e, 1-(2-(N,N-diethylamino)ethyl)-6-(tetrahydrothiopyran-4-yl)-1H-indole], the results for the inhibition at 0.1 µM at 5-HT1D receptor and on 5-HT1B receptor were more than 75% and less than 15%, respectively.
As to `c1cc(-c2ccc3cnn(CCNC4CC4)c3c2)cs1` [Example 9p, 1-(2-(N-cyclopropylamino)ethyl)-6-(3-thienyl)-1H-indazole], the inhibition at 0.1 µM at 5-HT1D receptor is more than 75%.
In the case of `CCN(CC)CCn1ncc2ccc(-c3cc4ccccc4o3)cc21` [Example 10o, 1-(2-(N,N-diethylamino)ethyl)-6-(benzofuran-2-yl)-1H-indazole], at 5-HT1D receptor, the inhibition at 0.1 µM was more than 50%.
On the same count and under the same terms, under `CCN(CC)CCn1ncc2ccc(C3CCSCC3)cc21` [Example 16d, 1-(2-(N,N-diethylamino)ethyl)-6-(tetrahydrothiopyran-4-yl)-1H-indazole] stands more than 75%.
For `CCN(CC)CCn1ncc2ccc(C3CCOCC3)cc21` [Example 16, 1-(2-(N,N-diethylamino)ethyl)-6-(tetrahydropyran-4-yl)-1H-indazole], the inhibition at 0.1 µM at 5-HT1D receptor was more than 75%; at 5-HT1B receptor, less than 15%.
For the compound `CN(C)CCn1ccc2ccc(C3(O)CCOCC3)cc21` [Example 6, 6-(4-hydroxy-tetrahydropyran-4-yl)-1-(2-(N,N-dimethylamino)ethyl)-1H-indole], the inhibition at 0.1 µM on 5-HT1D receptor is more than 90%.
Regarding `CN(C)CCn1ncc2ccc(-c3ccsc3)cc21` [Example 10b, 1-(2-(N,N-dimethylamino)ethyl)-6-(3-thienyl)-1H-indazole], the inhibition at 0.1 µM on 5-HT1D receptor was more than 90%.
Still for that read-out and setting: for `CN(C)CCn1ccc2ccc(-c3cccnc3)cc21` [Example 10w, 1-(2-(N,N-dimethylamino)ethyl)-6-(3-pyridinyl)-1H-indole] the value was more than 90%.
As for `CN(C)CCn1ncc2ccc(-c3cccs3)cc21` [Example 10, 1-(2-(N,N-dimethylamino)ethyl)-6-(2-thienyl)-1H-indazole], the inhibition at 0.1 µM at 5-HT1D receptor is more than 75%; at 5-HT1B receptor it was less than 50%.
On to `CCN(CC)CCn1ncc2ccc(-c3ccsc3)cc21` [Example 9b, 1-(2-(N,N-diethylamino)ethyl)-6-(3-thienyl)-1H-indazole], for which the inhibition at 0.1 µM on 5-HT1D receptor was more than 75%; at 5-HT1B receptor it was less than 15%.
For `CCN(CC)CCn1ncc2ccc(-c3cccnc3)cc21` [Example 10h, 1-(2-(N,N-diethylamino)ethyl)-6-(3-pyridinyl)-1H-indazole], in that order: more than 75% and less than 15%.
For `CN(C)CCn1ccc2ccc(C3(O)CCSCC3)cc21` [Example 3, 1-(2-(N,N-Dimethylamino)ethyl)-6-(4-hydroxy-tetrahydro-thiopyran-4-yl)-1H-indole], in that order: more than 75% and less than 15%.
`CN(C)CCn1ccc2ccc(-c3cccs3)cc21` [Example 10t, 1-(2-(N,N-dimethylamino)ethyl)-6-(2-thienyl)-1H-indole]: the inhibition at 0.1 µM on 5-HT1D receptor is more than 75%.
On to `CN(C)CCn1ccc2ccc(-c3ccccn3)cc21` [Example 12b, 1-(2-(N,N-dimethylamino)ethyl)-6-(pyridin-2-yl)-1H-indole], for which, on 5-HT1D receptor, the inhibition at 0.1 µM is more than 50%.
Same read-out and setting: under `CN(C)CCn1ncc2ccc(-c3ccncc3)cc21` [Example 12, 1-(2-(N,N-dimethylamino)ethyl)-6(4-pyridinyl)-1H-indazole] stands more than 75%.
For `c1cc(-c2ccc3cnn(CCN4CCCC4)c3c2)cs1` [Example 9i, 1-(2-(N-pyrrolidinyl)ethyl)-6-(3-thienyl)-1H-indazole], the inhibition at 0.1 µM at 5-HT1D receptor was more than 75%; on 5-HT1B receptor it was less than 15%.
Take `CCN(CC)CCn1ncc2ccc(-c3ccoc3)cc21` [Example 10i, 1-(2-(N,N-diethylamino)ethyl)-6-(furan-3-yl)-1H-indazole]: the inhibition at 0.1 µM is more than 75% at 5-HT1D receptor and less than 15% at 5-HT1B receptor.
Consider `CCN(CC)CCn1ccc2ccc(-c3cccnc3)cc21` [Example 10dd, 1-(2-(N,N-diethylamino)ethyl)-6-(3-pyridinyl)-1H-indole], for which the inhibition at 0.1 µM at 5-HT1D receptor is more than 75%.
